Data on three molecules can be found in US12297220B2, “Phenethylamines and cathinones precursors” (Transcend Therapeutics, Inc., priority 2022, dated 2025).

Series [1] relates to healthy volunteers. The conditions noted are these: self-administration; cited from earlier work.
Series [2] deals with fear extinction recall. The conditions noted are these: 7.5 mg/kg, 30 minutes prior to extinction training; cited from earlier work.
Series [3] concerns mouse model of PTSD. Put plainly: Fear extinction recall in a mouse model of PTSD. The following applies: 30 mg/kg, IP. The format is in vivo. Here is the method:
FIGS. 1A-1D: Methylone improves fear extinction recall in a mouse model of PTSD. (FIG. 1A) Schematic of experimental design. A single CS—US (tone-shock) pairing on day 1 was followed by 6 CS presentations in a novel context (context B). Methylone or saline vehicle was injected 30 min prior to extinction training on day 2. On day 3, the time spent freezing to the CS was quantified. […] (FIG. 1C) The time freezing before vs. during each of 6 cues on day 3 (to control for locomotor effects) are shown. There was a significant cue×drug interaction (F(5, 130)=2.409, p<0.05). […] N=12 for methylone group (30 mg/kg, IP, orange diamonds) and N=16 for saline control group (black squares). *p<0.05
Effective PTSD treatments facilitate the disassociation between a traumatic memory and the patient's fear response, making cues for the traumatic memory evoke less of a fear response. This is modeled in the mouse fear extinction paradigm which takes place over 3 days. On day 1 (fear conditioning), mice are trained to acquire a “traumatic memory,” namely associating the conditioned stimulus (CS, tone) to the unconditioned stimulus (US, foot shock). On day 2 (extinction training), they are trained to forget the traumatic memory association by presenting the CS 6 times (with no US) in a novel environment. On day 3 (extinction recall), the mice are “asked” if that tone (CS) still elicits a fearful response, as measured by the time spent freezing when the tone is presented. Less time freezing means better extinction recall. Drugs that improve extinction recall reduce freezing time on day 3, and, therefore, show potential as a PTSD treatment.
Using these methods, prodrugs are administered to mice and tested for efficacy in the fear extinction model to evaluate their efficacy to treat PTSD and other memory disorders.

Series [4] deals with open field test. The conditions noted are these: cited from earlier work.
The test system of series [5] is rat forced swim test. As to the kind of experiment: Forced swim test (FST), antidepressant-like activity. The format is in vivo. Here is the method:
The forced swim test (FST) is a classic model to assess the antidepressant-like activity of compounds that has been in use for over 40 years (Porsolt et al. (1977) Nature 266:730-732; Detke et al. (1995) Psychopharmacology 121:66-72). […] A single dose of 5 mg/kg methylone reduces immobility by approximately 50% compared to vehicle-treated controls, whereas a 15 mg/kg dose reduces immobility by nearly 100%. Accompanying changes in climbing and/or swimming behavior reflect noradrenergic and serotonergic activities of methylone, respectively.
All FST studies are performed and scored by an experimenter blind to treatment group and according to standard protocols. Briefly, rats are placed in a circular plexiglass container filled with water. Water temperature is maintained at 22-25° C. and changed for every animal. Day 1 (Training) consists of a 15 min acclimation trial, and Day 2 (Testing, 24 h later) consists of the 5 min test. A time sampling procedure is employed where animals are observed every 5 seconds for the duration of the test session (60 counts or 5 minutes) and scored for immobility (defined as the failure to struggle), swimming (defined as a circular movement around the tank), or climbing (defined as an upwards escape behavior). Data are expressed as the percent of the testing session (e.g., the number of immobility counts divided by 60). […]

For series [6], the system named is PTSD. The following applies: clinical case series of 21 individuals; cited from earlier work.
A short description of series [7]: Chemical stability in phosphate buffer without hepatocytes (negative control). The format is physicochemical. The following applies: phosphate buffer pH 6.8 at 37° C., up to 2 hours. Here is the method: (§1) Bioactivation Potential of Prodrug Candidates: After a prodrug is synthesized, its bioactivation potential to release methylone is assessed under in vitro conditions. As the prodrugs are designed to be enzymatically activated by esterases and amidases/peptidases found in the blood and/or the liver, each prodrug is incubated in human and rat whole blood as well as liver hepatocytes. In these assays, the percentage of released parent methylone and of remaining prodrug is measured at different timepoints for a period of 2 hours. A chemical stability assessment of each prodrug is also performed under various pH conditions to ensure that the methylone released is a result of enzymatic hydrolysis. Prodrugs that show in vitro bioactivation are then administered (IV/PO) to rats, and blood samples are collected to assess the pharmacokinetic profile of each prodrug.
When compound 50 was incubated with human hepatocytes under the conditions described above, at t=60 minutes, approximately 100% of the prodrug had been converted to methylone with a total recovery of approximately 100%.

Series [8] relates to human hepatocytes. As to the kind of experiment: Prodrug bioactivation / metabolic stability in hepatocytes. Format: in vitro ADME. The following applies: t=60 minutes. Here is the method:
as §1
For example, the metabolic stability of prodrug candidates to release methylone could be assessed in vitro according to the following protocol: cryopreserved human and rat hepatocytes are thawed in recovery media and diluted in plating media to a viable cell density of 1×10^6 cells/mL. Viability is determined by trypan blue exclusion. […] All samples, including analytical standards, are analyzed by LC-MS/MS to measure the concentration of methylone released and the concentration of the corresponding prodrug remaining. […]

Molecules are shown by their SMILES.

In the case of `CNC(C)Cc1ccc2c(c1)OCO2` (centres unmarked) [MDMA], the “systolic and diastolic blood pressure” value in series [1] is reported as “significant increase”. The “reduced freezing compared to saline injected controls (extinction recall)” value in series [2] is on record as 35%.

For the molecule `CNC(C)C(=O)c1ccc2c(c1)OCO2` (centres unmarked) [Methylone, methylone], the fear extinction recall in series [3] was “significantly improves fear extinction recall”. In addition, the “Freezing time during the first cue on day 3 (extinction recall) compared to saline” value in series [3] (30 min prior to extinction training, p<0.05) is given as “significantly reduced”. In addition, in series [3] (p>0.05), the “locomotor changes on day 3” value is “No locomotor changes were observed”. In series [4] (5, 10, 20 mg/kg, SC, rats), the “thigmotaxis (time spent hugging the perimeter of the open field)” value is “reduce thigmotaxis”. In series [4] (rat, in vivo), the “locomotor activity in the OFT” value is on record as “increases locomotor activity” and the “time spent in the center vs the periphery in the OFT” value was “reduces time spent in the center vs the periphery”. In addition, in series [5], the “antidepressant-like effect in the rat forced swim test” value is on record as “robust, dose-dependent antidepressant-like effect”. The “patients with improved symptoms of PTSD” value in series [6] was 81%. Moreover, in series [1], the heart rate entry was “increase in heart rate”; the “systolic and diastolic blood pressure” value is “significant increase”.

Regarding `CC(OC(=O)C(C)C)OC(=O)N(C)C(C)C(=O)c1ccc2c(c1)OCO2` (centres unmarked) [compound 50, 1-(((1-(benzo[d][1,3]dioxol-5-yl)-1-oxopropan-2-yl)(methyl)carbamoyl)oxy)ethyl isobutyrate], the “release of parent methylone in absence of hepatocytes” value in series [7] is listed as “no parent methylone was released”. For the same molecule, in series [8], the “prodrug converted to methylone” value is reported as “approximately 100%”.
